Results reported in patent US20230277698A1, “SILICON-CONTAINING LIGAND COMPOUNDS” (Technische Universität München, priority 2020, published 2023).

System: LNCaP tumor-bearing CB17-SCID mice
Assay: Biodistribution studies 24 h p.i.
Format: in vivo
Settings: 177Lu-labelled, mean±SD, n=4-5; for biodistribution: tumor: LNCaP xenograft; for biodistribution: blood: i.v. tail vein
Experimental: All animal experiments were conducted in accordance with general animal welfare regulations in Germany (German animal protection act, as amended on 18 May 2018, Art. 141 G v. 29.3.2017|626, approval no. 55.2-1-54-2532-71-13) and the institutional guidelines for the care and use of animals. To establish tumor xenografts, LNCaP cells (approx. 10^7 cells) were suspended in 200 μL of a 1:1 mixture (v/v) of DMEM F-12 and Matrigel (BD Biosciences, Germany), and inoculated subcutaneously onto the right shoulder of 6-8 weeks old CB17-SCID mice (Charles River, Sulzfeld, Germany). Mice were used for experiments when tumors had grown to a diameter of 5-10 mm (3-6 weeks after inoculation).
Approximately 5-10 MBq (0.1-0.2 nmol) of the radioactive-labelled PSMA inhibitors were injected into the tail vein of LNCaP tumor-bearing male CB-17 SCID mice and sacrificed after 24 h post injection. Selected organs were removed, weighted and measured in a γ-counter.
FIG. 10 and the following table show the biodistribution data 24 h p.i. of ^177Lu-labeled compounds in LNCaP tumor-bearing CB17-SCID mice. Data are expressed as mean±SD (n=4-5).

Q: What does the source list for CC(C)(C)[Si](O)(c1ccc(C(=O)NC[C@@H](NC(=O)CC[C@@H](C(=O)O)N2CCN(CC(=O)O)CCN(CC(=O)O)CCN(CC(=O)O)CC2)C(=O)NCC(=O)N[C@@H](CCCCNC(=O)CCC(=O)NCCC[C@@H](NC(=O)CC[C@H](NC(=O)N[C@@H](CCC(=O)O)C(=O)O)C(=O)O)C(=O)O)C(=O)O)cc1)C(C)(C)C [E102-SiOH]?
A: biodistribution: tumor: 4.4 ± 0.6 % ID/g; biodistribution: blood: 0.002 ± 0.001 % ID/g; biodistribution: adrenals: 0.05 ± 0.03 % ID/g; biodistribution: bone: 0.03 ± 0.01 % ID/g; biodistribution: heart: 0.02 ± 0.02 % ID/g; biodistribution: intestine: 0.43 ± 0.31 % ID/g; biodistribution: kidneys: 3.3 ± 2.9 % ID/g; biodistribution: liver: 0.05 ± 0.02 % ID/g; biodistribution: lung: 0.04 ± 0.02 % ID/g; biodistribution: muscle: 0.001 ± 0.001 % ID/g; biodistribution: pancreas: 0.01 ± 0.01 % ID/g; biodistribution: parotis: 0.02 ± 0.01 % ID/g; biodistribution: spleen: 0.13 ± 0.10 % ID/g; biodistribution: stomach: 0.08 ± 0.07 % ID/g; biodistribution: submandibularis: 0.01 ± 0.01 % ID/g

Q: For CC(C)(C)[Si](O)(c1ccc(C(=O)N[C@H](CCC(=O)NC[C@@H](NC(=O)CC[C@@H](C(=O)O)N2CCN(CC(=O)O)CCN(CC(=O)O)CCN(CC(=O)O)CC2)C(=O)NCCCCCC(=O)NCCC[C@@H](NC(=O)CC[C@H](NC(=O)N[C@@H](CCC(=O)O)C(=O)O)C(=O)O)C(=O)O)C(=O)O)cc1)C(C)(C)C [P105-SiOH], which “biodistribution: tumor” value is on record?
A: 6.3 ± 2.1 % ID/g

Q: What about the “biodistribution: blood” value of the same compound?
A: 0.004 ± 0.003 % ID/g

Q: And the “biodistribution: adrenals” value?
A: 0.12 ± 0.01 % ID/g

Q: And the “biodistribution: bone” value?
A: 0.02 ± 0.01 % ID/g

Q: And the “biodistribution: heart” value?
A: 0.01 ± 0.01 % ID/g

Q: And the “biodistribution: intestine” value?
A: 0.08 ± 0.05 % ID/g

Q: What about the “biodistribution: kidneys” value of the same compound?
A: 4.2 ± 2.5 % ID/g

Q: And the “biodistribution: liver” value?
A: 0.37 ± 0.07 % ID/g

Q: What about the “biodistribution: lung” value of the same compound?
A: 0.04 ± 0.01 % ID/g

Q: What about the “biodistribution: muscle” value of the same compound?
A: 0.004 ± 0.001 % ID/g

Q: What about the “biodistribution: pancreas” value of the same compound?
A: 0.01 ± 0.01 % ID/g

Q: What about the “biodistribution: parotis” value of the same compound?
A: 0.07 ± 0.03 % ID/g

Q: What about the “biodistribution: spleen” value of the same compound?
A: 0.31 ± 0.10 % ID/g

Q: What about the “biodistribution: stomach” value of the same compound?
A: 0.02 ± 0.01 % ID/g

Q: And the “biodistribution: submandibularis” value?
A: 0.03 ± 0.01 % ID/g

Q: CC(C)(C)[Si](O)(c1ccc(C(=O)NC[C@@H](NC(=O)CC[C@@H](C(=O)O)N2CCN(CC(=O)O)CCN(CC(=O)O)CCN(CC(=O)O)CC2)C(=O)N[C@H](CCCCNC(=O)CCC(=O)NCCC[C@@H](NC(=O)CC[C@H](NC(=O)N[C@@H](CCC(=O)O)C(=O)O)C(=O)O)C(=O)O)C(=O)O)cc1)C(C)(C)C [7.3-SiOH] was tested. Which “biodistribution: tumor” value did it give?
A: 7.3 ± 0.8 % ID/g

Q: What about the “biodistribution: blood” value of the same compound?
A: 0.002 ± 0.001 % ID/g

Q: What about the “biodistribution: bone” value of the same compound?
A: 0.01 ± 0.01 % ID/g

Q: And the “biodistribution: heart” value?
A: 0.01 ± 0.01 % ID/g

Q: What about the “biodistribution: intestine” value of the same compound?
A: 0.45 ± 0.39 % ID/g

Q: What about the “biodistribution: kidneys” value of the same compound?
A: 3.7 ± 1.9 % ID/g

Q: And the “biodistribution: liver” value?
A: 0.08 ± 0.03 % ID/g

Q: What about the “biodistribution: lung” value of the same compound?
A: 0.03 ± 0.01 % ID/g

Q: And the “biodistribution: muscle” value?
A: 0.006 ± 0.005 % ID/g

Q: What about the “biodistribution: pancreas” value of the same compound?
A: 0.01 ± 0.01 % ID/g

Q: What about the “biodistribution: spleen” value of the same compound?
A: 0.21 ± 0.11 % ID/g

Q: What about the “biodistribution: stomach” value of the same compound?
A: 0.24 ± 0.36 % ID/g

Q: With CC(C)(C)[Si](O)(c1ccc(C(=O)NC[C@@H](NC(=O)CC[C@@H](C(=O)O)N2CCN(CC(=O)O)CCN(CC(=O)O)CCN(CC(=O)O)CC2)C(=O)N[C@H](CO)C(=O)NCCC(=O)NCCC(=O)NCCC[C@@H](NC(=O)CC[C@H](NC(=O)N[C@@H](CCC(=O)O)C(=O)O)C(=O)O)C(=O)O)cc1)C(C)(C)C [C007-SiOH] as the compound, how does the “biodistribution: tumor” value read?
A: 5.4 ± 0.8 % ID/g

Q: What about the “biodistribution: blood” value of the same compound?
A: 0.003 ± 0.001 % ID/g

Q: And the “biodistribution: adrenals” value?
A: 0.20 ± 0.01 % ID/g

Q: What about the “biodistribution: bone” value of the same compound?
A: 0.02 ± 0.01 % ID/g

Q: And the “biodistribution: heart” value?
A: 0.02 ± 0.01 % ID/g

Q: And the “biodistribution: intestine” value?
A: 0.13 ± 0.08 % ID/g

Q: And the “biodistribution: kidneys” value?
A: 3.5 ± 1.4 % ID/g

Q: And the “biodistribution: liver” value?
A: 0.40 ± 0.13 % ID/g

Q: And the “biodistribution: lung” value?
A: 0.04 ± 0.01 % ID/g

Q: And the “biodistribution: muscle” value?
A: 0.004 ± 0.001 % ID/g

Q: What about the “biodistribution: pancreas” value of the same compound?
A: 0.01 ± 0.01 % ID/g

Q: What about the “biodistribution: parotis” value of the same compound?
A: 0.06 ± 0.03 % ID/g

Q: What about the “biodistribution: spleen” value of the same compound?
A: 0.40 ± 0.10 % ID/g

Q: What about the “biodistribution: stomach” value of the same compound?
A: 0.04 ± 0.01 % ID/g

Q: And the “biodistribution: submandibularis” value?
A: 0.03 ± 0.01 % ID/g

Q: For O=C(O)CC[C@H](NC(=O)N[C@@H](CCCCNC(=O)[C@H](Cc1ccc2ccccc2c1)NC(=O)[C@H]1CC[C@H](CNC(=O)CN2CCN(CC(=O)O)CCN(CC(=O)O)CCN(CC(=O)O)CC2)CC1)C(=O)O)C(=O)O [PSMA-617, reference compound], which “biodistribution: tumor” value is on record?
A: 7.5 ± 0.9 % ID/g

Q: And the “biodistribution: blood” value?
A: 0.006 ± 0.01 % ID/g

Q: What about the “biodistribution: adrenals” value of the same compound?
A: 0.13 ± 0.12 % ID/g

Q: What about the “biodistribution: bone” value of the same compound?
A: 0.03 ± 0.01 % ID/g

Q: What about the “biodistribution: heart” value of the same compound?
A: 0.01 ± 0.01 % ID/g

Q: What about the “biodistribution: intestine” value of the same compound?
A: 0.12 ± 0.08 % ID/g

Q: And the “biodistribution: kidneys” value?
A: 1.4 ± 0.4 % ID/g

Q: What about the “biodistribution: liver” value of the same compound?
A: 0.12 ± 0.06 % ID/g

Q: And the “biodistribution: lung” value?
A: 0.04 ± 0.01 % ID/g

Q: And the “biodistribution: muscle” value?
A: 0.01 ± 0.01 % ID/g

Q: And the “biodistribution: pancreas” value?
A: 0.01 ± 0.01 % ID/g

Q: And the “biodistribution: spleen” value?
A: 0.08 ± 0.01 % ID/g

Q: And the “biodistribution: stomach” value?
A: 0.02 ± 0.01 % ID/g

Q: Which “biodistribution: tumor” value does the source give for CC(C)(C)[Si](F)(c1ccc(C(=O)NC[C@@H](NC(=O)CC[C@@H](C(=O)O)N2CCN(CC(=O)O)CCN(CC(=O)O)CCN(CC(=O)O)CC2)C(=O)N[C@H](CCCCNC(=O)CCC(=O)NCCC[C@@H](NC(=O)CC[C@H](NC(=O)N[C@@H](CCC(=O)O)C(=O)O)C(=O)O)C(=O)O)C(=O)O)cc1)C(C)(C)C [rhPSMA-7.3, reference compound] here?
A: 7.6 ± 0.5 % ID/g

Q: What about the “biodistribution: blood” value of the same compound?
A: 0.004 ± 0.002 % ID/g

Q: What about the “biodistribution: bone” value of the same compound?
A: 0.02 ± 0.01 % ID/g

Q: What about the “biodistribution: heart” value of the same compound?
A: 0.03 ± 0.01 % ID/g

Q: And the “biodistribution: intestine” value?
A: 0.12 ± 0.03 % ID/g

Q: What about the “biodistribution: kidneys” value of the same compound?
A: 13.2 ± 6.7 % ID/g

Q: And the “biodistribution: liver” value?
A: 0.22 ± 0.03 % ID/g

Q: What about the “biodistribution: lung” value of the same compound?
A: 0.06 ± 0.02 % ID/g

Q: And the “biodistribution: muscle” value?
A: 0.012 ± 0.004 % ID/g

Q: And the “biodistribution: pancreas” value?
A: 0.02 ± 0.01 % ID/g

Q: And the “biodistribution: parotis” value?
A: 0.22 ± 0.16 % ID/g

Q: And the “biodistribution: spleen” value?
A: 0.51 ± 0.22 % ID/g

Q: And the “biodistribution: stomach” value?
A: 0.05 ± 0.01 % ID/g

Q: What about the “biodistribution: submandibularis” value of the same compound?
A: 0.05 ± 0.02 % ID/g

Q: For CC(C)(C)[Si](F)(c1ccc(C(=O)NC[C@@H](NC(=O)CN2CCN(CC(=O)O)CCN(CC(=O)O)CCN(CC(=O)O)CC2)C(=O)N[C@H](CCCCNC(=O)CCC(=O)NCCC[C@@H](NC(=O)CC[C@H](NC(=O)N[C@@H](CCC(=O)O)C(=O)O)C(=O)O)C(=O)O)C(=O)O)cc1)C(C)(C)C [rhPSMA-10, reference compound], which “biodistribution: tumor” value is on record?
A: 10.2 ± 2.8 % ID/g

Q: And the “biodistribution: blood” value?
A: 0.004 ± 0.001 % ID/g

Q: What about the “biodistribution: adrenals” value of the same compound?
A: 0.09 ± 0.06 % ID/g

Q: What about the “biodistribution: bone” value of the same compound?
A: 0.02 ± 0.01 % ID/g

Q: What about the “biodistribution: heart” value of the same compound?
A: 0.03 ± 0.01 % ID/g

Q: And the “biodistribution: intestine” value?
A: 0.11 ± 0.06 % ID/g

Q: What about the “biodistribution: kidneys” value of the same compound?
A: 4.1 ± 2.3 % ID/g

Q: What about the “biodistribution: liver” value of the same compound?
A: 0.28 ± 0.13 % ID/g

Q: What about the “biodistribution: lung” value of the same compound?
A: 0.05 ± 0.01 % ID/g

Q: And the “biodistribution: muscle” value?
A: 0.010 ± 0.003 % ID/g

Q: And the “biodistribution: pancreas” value?
A: 0.02 ± 0.01 % ID/g

Q: And the “biodistribution: spleen” value?
A: 0.22 ± 0.11 % ID/g

Q: And the “biodistribution: stomach” value?
A: 0.04 ± 0.01 % ID/g
